Source: patent publication US20060036073A1, “Neurotrophic and neuroprotective peptides” (priority 2002, published 2006)
Where a SMILES comes first, the peptide text is derived from it. Where no end group is shown, it is not given here.

Legend:
[1] = system: cortical neurons that are obtained from chicken embryos; test: Summary of the screening over all neuroprotection assays; format: cell-based; settings: for Active in: (number of assays): Table 2 summary
Description: Since the targets of the therapy with the peptides presented according to the invention are various neurodegenerative diseases, different model systems for detecting the biological activity of the peptides according to the invention in the case of neurodegenerative diseases were used. Later, the individually used model systems and the results thus achieved are described. […] That is to say, the implementation of the tests was carried out on different days with different cell preparations and by different individuals. For some peptides, two numbers were issued (#1=#23 or #6=#35 or #7=#43), but the results with these peptides were only shown once. […] With some other substances, there were problems in the production, and thus only small amounts were available, and it was not possible to test the substances in all the assays (#12, 14, 17, 35 and #48). […] As could be seen from the figures, the standard deviations, i.e., the fluctuations between the independent experiments, are to some extent quite large. These fluctuations can be attributed to stability problems. These peptides are the peptides that are preferred within the scope of the invention.

[2] = system: amyloid-beta peptides (β-amyloid 25-35) / nerve cell cultures; test: Amyloid-beta aggregation assay (peptide added to fresh amyloid-beta solution, effect on nerve cell cultures); format: cell-based, chicken; settings: for AβP reagg. (diff vs C): difference vs control, only one round of testing
Description: Beta-Amyloid peptides represent, in aggregated form, a potent neurotoxin whose addition to the nerve cell cultures results in a quick and progressive cell death. Since beta-amyloid peptides constitute an essential role in the pathogenesis of Alzheimer's disease, this model can be considered especially relevant.
This biological test is a process for testing anti-aggregatory substance potential that is specially developed for this project. The newly synthesized peptides are added directly to a fresh solution of amyloid-beta peptides to prevent the formation of neurotoxic aggregates. The effect that aggregates that still develop have on growth and survival of nerve cell cultures is the measurement parameter.

[3] = system: cortical neurons that are obtained from chicken embryos; test: Serum-withdrawal assay (2% assay), neuron viability by MTT; format: cell-based
Description: This simulates the disruptions in the stimulation of neurons with nerve growth factors that are assumed to be one of the possible causes of neurodegenerative diseases. The effectiveness of the new peptides in preventing cell death was measured.

[4] = system: cortical neurons that are obtained from chicken embryos; test: Chronic disruption of the calcium metabolism by ionomycin, neuron viability by MTT; format: cell-based; settings: ionomycin 10 μM, 24 hours
Description: It is common to these biological test systems that cortical neurons that are obtained from chicken embryos are cultivated in culture plates for eight days and then are exposed to a specific noxa (Pettmann et al., Nature 281 (5730): 378-80 [1979]).
To this end, a one-day-old, fertilized hen's egg is incubated for eight days at +12 +/− 0.1° C. and 80 +/− 5% atmospheric humidity. On the embryonal day 0, the eggs are transferred into an incubator and incubated up to the embryonal day 8 at 38 +/− 0.5° C. and 55 +/− 5%. After the brains are removed, the cortices are isolated, homogenized, and neurons are taken into primary culture (culture conditions: Dulbecco's Modified Eagle's Medium, 20% v/v fetal calf serum, 0.01% gentamicin, 1 g/l of glucose, 2 mmol of L-glutamine, +37° C., 5% CO2 and 95% atmospheric humidity). […] After the end of the specified stress period, the proportion of the still living neurons is determined with a metabolic colorimetric assay (the reaction of the yellow chromophore MTT to a blue formazan product is carried out only by living cells).
It is expected that in the case of various neurodegenerative diseases, chronic calcium overloading occurs because of metabolic malfunctions, which ultimately produces cell death via the activation of various enzyme systems. […]

DVFMKGLSMA [BH#27, DVFMKGLSMA]
Active in: (number of assays) [1]: 4 of 7

DVFMKGLSMAK [BH#26]
increase of neuronal vitality by ([2]; β-amyloid 25-35, peptide added to fresh amyloid solution): 74%
Active in: (number of assays) [1]: 2 of 7

DVFMKGL [BH#30, DVFMKGL]
effectiveness across the screening assays (in words) [1]: effective in only one screening assay

LSMAKEGV [BH#7, LSMAKEGV]
effects over the effects of the control (=100%) [3]: approximately 450%

GLSMA [BH#39]
effectiveness across the screening assays (in words) [1]: effective in only one screening assay

MDVFMK [BH#20, MDVFMK]
effectiveness across the screening assays (in words) [1]: effective in only one screening assay

DVFMK [BH#32]
effectiveness across the screening assays (in words) [1]: not effective in any assay

Ac-SMAKEGV [BH#8, SMAKEGV]
increase in cell vitality to [4]: about 150%
action in models of pathological processes of neurodegenerative diseases (in words) [1]: excellent action
Active in: (number of assays) [1]: 5 of 7

MDVFMKGL [BH#18]
effectiveness across the screening assays (in words) [1]: not effective in any assay

LSMAK [BH#46, LSMAK]
action in models of pathological processes of neurodegenerative diseases (in words) [1]: excellent action
Active in: (number of assays) [1]: 2 of 7

MDVFMKGLSM [BH#16, MDVFMKGLSM]
effects over the effects of the control (=100%) [3]: 150%
Active in: (number of assays) [1]: 4 of 7

DVFMKGLSM [BH#28, DVFMKGLSM]
Active in: (number of assays) [1]: 4 of 7

MDVFMKG [BH#19, MDVFMKG]
AβP reagg. (diff vs C) [2]: 20%

GLSMAKE [BH#37, GLSMAKE]
effects over the effects of the control (=100%) [3]: 150%

CSCC[C@H](NC(=O)[C@H](Cc1ccccc1)NC(=O)[C@@H](NC(=O)[C@@H](N)CC(=O)O)C(C)C)C(=O)O [BH#33, DVFM] (H-DVFM-OH; N-terminus and C-terminus assumed)
effectiveness across the screening assays (in words) [1]: effective in only one screening assay

LSMAKE [BH#45, LSMAKE]
effectiveness across the screening assays (in words) [1]: effective in only one screening assay

GLS [BH#41]
effectiveness across the screening assays (in words) [1]: not effective in any assay

CC(C)[C@H](NC(=O)[C@@H](N)CC(=O)O)C(=O)N[C@@H](Cc1ccccc1)C(=O)O [BH#34, DVF] (H-Asp-Val-Phe-OH)
AβP reagg. (diff vs C) [2]: 19%
increase in cell vitality to [4]: about 150%
